Data from patent US20130281409A1, “Myelin Sheath Fatty Acids that Resolve Neuroinflammation” (priority 2012, published 2013).

What was measured:
[1] = test system: EAE in PLP139-151-immunized SJL/J mice; experiment: EAE, lipid administered prophylactically (co-immunization with PLP139-151); assay type: in vivo, mouse; settings: 6 μg/injection; s.c. with PLP139-151 on day 0, i.p. on days 4 and 7
Procedure: Animal experiments were approved by, and performed in compliance with, the National Institute of Health guidelines of the Institutional Animal Care and Use Committee at Stanford University. For induction of EAE, 8- to 12-week-old female SJL/J mice (Jackson Laboratory) were immunized subcutaneously with 100 μg of PLP139-151 emulsified in CFA (Difco Laboratories). Three injections of PGPC (6 μg/mouse/injection) or vehicle (0.05% Tween-20 in PBS) were delivered on days 0, 4, and 7 after immunization with PLP139-151. On day 0, the lipid or vehicle was emulsified together with PLP139-151 in CFA and administered by subcutaneous injection. At subsequent time points, lipid or vehicle was injected intraperitoneally. EAE was assessed as previously described. To induce EAE in SJL/J mice (Jackson Mice), we immunized 8- to 12-week-old female animals subcutaneously with 100 μg of PLP139-151 emulsified in CFA (Difco Laboratories). Prophylactic administration of lipid: Three injections of PGPC or sphingomyelin (6 μg/mouse/injection) or vehicle (0.05% Tween-20 in PBS) were delivered on days 0, 4, and 7 after immunization with PLP139-151. […] Clinical disease was monitored daily using the following scoring system: 0, no disease; 1, limp tail; 2, hind limb weakness; 3, hind limb paralysis; 4, hind limb and forelimb paralysis; 5, death. […]

CD4+ T cells = experiment: CD69 expression on lymph node cells from PGPC-treated EAE mice (flow cytometry); assay type: in vivo, mouse; settings: lymph node cells of prophylactically treated EAE mice, cultured 4 days with 10 μg/ml PLP139-151
Procedure: FIG. 9. PGPC treatment of mice with EAE suppresses T-cell activation. (A) Expression of CD69 (an early marker of activation) on CD4+ and CD8+ propidium iodide-negative (i.e. live) lymphocytes isolated from PGPC—or vehicle-treated EAE mice and cultured for 4 days with 10 μg/ml of PLP139-151. The ratio of CD69+CD4+:CD69−CD4+ is 14.2%:39.6% for lymph node cells from vehicle-treated EAE mice, and 7.96%:55.2% for cells from PGPC-treated EAE mice. […] (B) Proliferation and (C) cytokine production of splenocytes isolated from the vehicle- or PGPC-treated EAE mice in panel A. Splenocytes from PGPC-treated mice (gray bars) secreted lower levels of IFN-γ and TNF in response to PLP139-151. *P<0.05, respectively, by Student's t-test comparing PLP139-151-stimulated cells from PGPC-treated mice with PLP139-151-stimulated cells from vehicle-treated mice.
PLP-stimulated cells from PLP139-151-immunized mice administered PGPC prophylactically: SJL/J mice were co-injected with PGPC and PLP139-151 in CFA and sacrificed 48 days later. Lymph node cells and splenocytes were then harvested and re-stimulated in vitro (2.5×10^6 cells/ml) with 10 μg/ml of PLP139-151 or with media alone. […]
Cells were stained according to standard protocols, run on a FACScan flow cytometer (BD Biosciences), and analysed with CellQuest software (BD Immunocytometry Systems) or with FlowJo software version 6.3.2 (Tree Star, Inc.). […]

B cells = experiment: Apoptosis of anti-IgM F(ab')2/anti-CD40-stimulated purified B cells; assay type: cell-based, mouse; settings: 30 μg/ml lipid, anti-IgM F(ab')2 and anti-CD40, 48 hours
Procedure: Anti-IgM F(ab′)2 fragment/anti-CD40-stimulated purified B cells: We harvested spleens from naive C57BL/6 mice and used a B-cell isolation kit (Miltenyi Biotec) to negatively isolate B cells. We then stimulated 5×10^5 cells/ml of B cells with 5 μg/ml of each of soluble anti-IgM F(ab′)2 fragment (Jackson ImmunoResearch) antibody and anti-CD40 antibody (eBioscience) in the presence of 30 μg/ml of POPS, PGPC, azPC ester, or azPC.
Cells were stained according to standard protocols, run on a FACScan flow cytometer (BD Biosciences), and analysed with CellQuest software (BD Immunocytometry Systems) or with FlowJo software version 6.3.2 (Tree Star, Inc.). The antibody conjugates used were FITC anti-CD4 (clone GK1.5, BD Pharmingen), FITC anti-mouse CD8 (clone 53-6.7, BD Pharmingen), FITC anti-mouse CD3 (clone 145-2C11, eBioscience), PE-anti-rat IgG2A isotype control (BD Pharmingen), and PE-anti-mouse CD69 (clone H1.2F3, eBioscience). 7AAD staining was performed by using the Annexin V-PE Apoptosis Detection Kit I (BD Pharmingen).

Structure (SMILES)	EAE severity (clinical score) [1]	CD4+CD69+ cells (CD4+ T cells)	CD69−CD4+ cells (CD4+ T cells)	apoptosis of activated B cells (B cells)
CCCCCCCCCCCCCCCC(=O)OC[C@H](COP(=O)([O-])OCC[N+](C)(C)C)OC(=O)CCCC(=O)O [PGPC, 1-Palmitoyl-2-Glutaroyl-sn-Glycero-3-Phosphocholine]	reduced the severity of EAE	7.96%	55.2%	
CCCCCCCC/C=C\CCCCCCCC(=O)O[C@H](COC(=O)CCCCCCCCCCCCCCC)COP(=O)(O)OC[C@H](N)C(=O)O [POPS, 1-Palmitoyl-2-Oleoyl-sn-Glycero-3-[Phospho-L-Serine]]				increased apoptosis
